Assay results as given in publication PMC7529893, “Structural basis for substrate recognition and chemical inhibition of oncogenic MAGE ubiquitin ligases” (Nature Communications, 2020).

biological target: T1, MAGE-A11:PCF11 interaction (GST-MAGE-A11 and FAM-PCF11_4) (Homo sapiens, UniProt P43364); test: TR-FRET primary / single point screen at 15 µM; format: binding; settings: single point TR-FRET screening of 797 quinoline compounds against MAGE-A11:PCF11
T1 construct: GST-MAGE-A11 MHD (human MAGE-A11 MHD amino acid 218-429); made in house; host or cells: E. coli BL21(DE3)
T1 sequence (P43364 218-429): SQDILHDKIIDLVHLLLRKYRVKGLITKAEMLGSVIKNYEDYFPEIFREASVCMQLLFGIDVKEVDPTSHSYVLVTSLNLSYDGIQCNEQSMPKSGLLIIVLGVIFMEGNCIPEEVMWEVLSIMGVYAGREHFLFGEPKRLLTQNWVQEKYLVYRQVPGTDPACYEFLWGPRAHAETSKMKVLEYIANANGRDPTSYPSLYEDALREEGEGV
Summary of the method: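 TR-FRET 520/490 nm emission ratio was read after 90 min at room temperature. Wells held 5 nM GST-MAGE-A11, 5 nM Tb-anti-GST, 200 nM FAM-PCF11_4 and 15 µM compound in Tris pH 7.5 buffer with MgCl2, BSA and DTT. %Inhibition was scaled to DMSO and minus-MAGE-A11 controls.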

percent inhibition (TR-FRET) | Compound
6.683 | COc1ccc(CN(CCCCNc2ccnc3cc(Cl)ccc23)Cc2ccccc2)cc1 [SJ000522724]
-129.124 | CCCN(CCCNc1c2ccc(Cl)cc2nc2ccc(OC)cc12)Cc1ccc2ccccc2c1 [SJ000520953]
22.1466 | Oc1ccccc1CN1CCC(Nc2ccnc3cc(Cl)ccc23)CC1 [SJ000357529]
-127.026 | CCCN(CCCNc1c2ccc(Cl)cc2nc2ccc(OC)cc12)Cc1scnc1C [SJ000522976]
-11.5001 | CN1CCN(c2c(S(=O)(=O)c3ccccc3)cnc3ccc(F)cc23)CC1 [SJ000083949]
-45.3213 | CCOc1ccc2ncc(S(=O)(=O)c3ccc(C)cc3)c(N3CCN(c4ccccc4)CC3)c2c1 [SJ000117049]
-159.863 | CCCN(CCCNc1c2ccc(Cl)cc2nc2ccc(OC)cc12)Cc1nccn1C [SJ000522973]
6.844 | CCCN(CCCCNc1ccnc2cc(Cl)ccc12)Cc1c(F)cccc1OC [SJ000311203]
0.8227 | COc1ccc(S(=O)(=O)c2cnc3cc(OC)c(OC)cc3c2N2CCN(C)CC2)cc1 [SJ000083955]
-7.813 | CCOC(=O)c1cnc2ccc(C(=O)OC)cc2c1NCCN1CCOCC1 [SJ000127079]
-146.701 | COc1ccc2nc3cc(Cl)ccc3c(NCCCNCc3cc4ccccc4o3)c2c1 [SJ000520997]
-219.419 | COc1ccc2nc3cc(Cl)ccc3c(NCCCNCc3ccc(Br)o3)c2c1 [SJ000523030]
-255.258 | COc1ccc2nc3cc(Cl)ccc3c(NCCCNCc3ccccn3)c2c1 [SJ000523024]
-4.358 | CCN1CCN(c2c(S(=O)(=O)c3ccc(C)cc3)cnc3ccc(Cl)cc23)CC1 [SJ000083966]
26.6585 | COc1ccc(OC(F)(F)F)cc1CN(CCCCNc1ccnc2cc(Cl)ccc12)Cc1ccccc1 [SJ000520447]
5.3962 | CCCN(CCCCNc1ccnc2cc(Cl)ccc12)Cc1cc(F)ccc1OC [SJ000311202]
-265.674 | CCN(CC)CCCC(C)Nc1c2ccc(Cl)cc2nc2ccc(OC)cc12 (stereo not shown) [SJ000285202]
-281.691 | CCCCCCNCCCNc1c2ccc(Cl)cc2nc2ccc(OC)cc12 [SJ000361097]
-2.0257 | O=[N+]([O-])c1ccccc1CN1CCC(Nc2ccnc3cc(Cl)ccc23)CC1 [SJ000523094]
-3.122 | COc1ccc(N2CCN(c3c(S(=O)(=O)c4ccc(Cl)cc4)cnc4ccc(C)cc34)CC2)cc1 [SJ000117075]
-394.576 | CCCN(CCCNc1c2ccc(Cl)cc2nc2ccc(OC)cc12)Cc1ccoc1 [SJ000520937]
-119.324 | CCCN(CCCNc1c2ccc(Cl)cc2nc2ccc(OC)cc12)Cc1cc(C)ccc1C [SJ000520960]
7.411 | CCN1CCN(c2c(S(=O)(=O)c3ccc(OC)cc3)cnc3cc(OC)c(OC)cc23)CC1 [SJ000083972]
6.55 | C#CCOCC(O)CN1CCN(c2cc(C)nc3ccccc23)CC1 (stereo not shown) [SJ000227655]

Further lines, the compound ahead of its results:

Compound | percent inhibition (TR-FRET)
CCOC(=O)c1cnc2c(Cl)cc(Cl)cc2c1NCCN1CCOCC1 [SJ000175864] | -13.059
O=[N+]([O-])c1ccc(CN(CCCCNc2ccnc3cc(Cl)ccc23)Cc2ccccc2)cc1 [SJ000361202] | 15.2459
FC(F)(F)c1ccccc1CN(CCCCNc1ccnc2cc(Cl)ccc12)Cc1ccccc1 [SJ000361192] | 27.8155
CCCCCCN1CCC(Nc2ccnc3cc(Cl)ccc23)CC1 [SJ000523108] | 29.2961
O=C(C[C@H]1CC[C@]2(CC1)OO[C@]1(O2)C2CC3CC(C2)CC1C3)NCCNc1ccnc2cc(Cl)ccc12 [SJ000578361] | 28.0142
FC(F)(F)Oc1cccc(CN(CCCCNc2ccnc3cc(Cl)ccc23)Cc2ccccc2)c1 [SJ000520457] | 33.314
FC(F)(F)c1cc(CN(CCCCNc2ccnc3cc(Cl)ccc23)Cc2ccccc2)ccc1Cl [SJ000520466] | 25.2787

same assay, conditions: single point TR-FRET screening of quinoline compounds against MAGE-A11:PCF11

percent inhibition (TR-FRET) | Compound
-446.911 | CCOc1ccc2ncc(S(=O)(=O)c3ccc(Cl)cc3)c(N3CCN(c4ccccc4)CC3)c2c1 [SJ000117054]

same assay, conditions: single point TR-FRET screening of quinoline compounds against MAGE-A11:PCF11; 15 µM

percent inhibition (TR-FRET) | Compound
-1.797 | CCCN(CCCNc1c2ccc(Cl)cc2nc2ccc(OC)cc12)Cc1ccncc1 [SJ000520918]
13.6386 | CCCN(CCCNc1ccnc2cc(Cl)ccc12)Cc1c(C)n(C)n(-c2ccccc2)c1=O [SJ000522755]
16.951 | CCCN(CCCNc1ccnc2cc(Cl)ccc12)Cc1ccc(Cl)c([N+](=O)[O-])c1 [SJ000522761]
20.4443 | COc1ccc(OC(F)(F)F)cc1CN(CCCNc1ccnc2cc(Cl)ccc12)Cc1ccccc1 [SJ000520452]
14.1686 | CCCN(CCCNc1c2ccc(Cl)cc2nc2ccc(OC)cc12)Cc1ccccc1C(F)(F)F [SJ000520928]
18.4667 | Cn1cc(CNCCCNc2ccnc3cc(Cl)ccc23)c2ccccc21 [SJ000521020]
-22.0025 | CCOC(=O)c1cnc2ccc(Br)cc2c1NCCCN1CCOCC1 [SJ000176507]
-74.0063 | CCCN(CCCNc1c2ccc(Cl)cc2nc2ccc(OC)cc12)Cc1ccc(-c2ccccc2)cc1 [SJ000522740]
16.3588 | CCCN(CCCNc1c2ccc(Cl)cc2nc2ccc(OC)cc12)Cc1ccc(Cl)c(C(F)(F)F)c1 [SJ000522974]
16.1546 | CCCN(CCCNc1c2ccc(Cl)cc2nc2ccc(OC)cc12)Cc1cccc(C(F)(F)F)c1 [SJ000522986]

Second part, the compound before the results:

Compound | percent inhibition (TR-FRET)
Oc1c(F)cc(F)cc1CN(CCCNc1ccnc2cc(Cl)ccc12)Cc1ccccc1 [SJ000357504] | 27.6387
c1coc(CNCCCNc2ccnc3cc(-c4cccc5ccccc45)ccc23)c1 [SJ000311274] | 41.5719
Clc1ccc2c(NCCCN(Cc3ccccc3)Cc3ccco3)ccnc2c1 [SJ000312668] | 0.5217
COC(=O)CCCCCNCCCNc1ccnc2cc(C(F)(F)F)ccc12 [SJ000521044] | 19.5869
Clc1ccc2c(NCCCN(Cc3ccccc3)Cc3cccnc3Br)ccnc2c1 [SJ000520462] | 9.715
O=[N+]([O-])c1ccc(CN(CCCNc2ccnc3cc(Cl)ccc23)Cc2ccccc2)cc1 [SJ000361179] | 20.1971
CC(C)CCN(CCCNc1ccnc2cc(Cl)ccc12)Cc1ccccc1 [SJ000311183] | 2.673
CCCN(CCCNc1ccnc2cc(C(F)(F)F)ccc12)CC1CCOC1 (stereo not shown) [SJ000575190] | 1.787
CCCN(CCCNc1ccnc2cc(Cl)ccc12)Cc1ccoc1 [SJ000357442] | 6.2139
CCCN(CCCNc1ccnc2cc(Cl)ccc12)Cc1ncc[nH]1 [SJ000523008] | 4.165
Clc1ccc2c(NCCCN(Cc3ccccc3)Cc3csc4ccccc34)ccnc2c1 [SJ000520454] | 28.1386
CCCN(CCCNc1ccnc2cc(C(F)(F)F)ccc12)Cc1ccc2ccccc2c1 [SJ000523075] | 11.3882
CCCN(CCCNc1ccnc2cc(C(F)(F)F)ccc12)Cc1cn(C)c2ccccc12 [SJ000520469] | 25.5382
CCCN(CCCNc1ccnc2cc(Cl)ccc12)Cc1ccc(OC(F)(F)F)cc1 [SJ000522999] | 22.7376
Cc1ccsc1CNCCCNc1ccnc2cc(Cl)ccc12 [SJ000311189] | 6.554
CC(CCN(CCCNc1ccnc2cc(Cl)ccc12)Cc1ccccc1)c1ccccc1 (stereo not shown) [SJ000311184] | 17.3464
Clc1ccc(Oc2ccc3c(NCCCNCc4ccco4)ccnc3c2)cc1 [SJ000311226] | 37.651
Clc1ccc2c(NCCCNCc3ccco3)ccnc2c1 [SJ000000502] | 6.349
CCCN(CCCNc1ccnc2cc(Cl)ccc12)Cc1c(Cl)ccc(Cl)c1Cl [SJ000523046] | 17.7459
CCCN(CCCNc1ccnc2cc(Cl)ccc12)Cc1cccnc1Br [SJ000523006] | 13.3074
CCCN(CCCNc1ccnc2cc(Cl)ccc12)CCOCc1ccccc1 [SJ000357577] | -13.1805
CCCN(CCCNc1ccnc2cc(C(F)(F)F)ccc12)Cc1cccc(C)c1 [SJ000523076] | 20.1719
c1ccc(-c2ccc3c(NCCCNCc4ccco4)ccnc3c2)cc1 [SJ000311282] | 28.689
Clc1ccc2c(NCCCNCc3ccc(Br)s3)ccnc2c1 [SJ000575193] | 15.3375
Clc1ccc2c(NCCCNCc3cc4ccccc4o3)ccnc2c1 [SJ000521029] | 17.9065
Clc1ccc2c(NCCCN(Cc3ccccc3)Cc3cccc4ccccc34)ccnc2c1 [SJ000361181] | 26.2256
CCCN(CCCNc1ccnc2cc(Cl)ccc12)Cc1ccccc1N [SJ000522747] | 15.4273
COC(=O)CCCCCNCCCNc1ccnc2cc(Cl)ccc12 [SJ000521021] | 39.1213
